The source of these data is patent publication US20260217706A1, “HETEROCYCLIC COMPOUNDS, PREPARATION METHOD THEREFOR AND USE THEREOF” (GUANGZHOU YUFAN NANTU BIOTECHNOLOGIES CO., LTD, priority 2023, published 2026).

Bounds are passed on as bounds.

One test addresses CBL-B protein (Homo sapiens, UniProt Q13191). The test is described as follows: CBL-B binding experiment (Streptavidin-Tb cryptate / Ligand L1 displacement). The conditions noted are these: 8 nM CBL-B protein, 25° C., 60 minutes; Ki=Relative IC50/2. In outline: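 Buffer was 20 mM HEPES pH 7.5, 150 mM NaCl, 0.01% Triton X-100, 0.5 mM TCEP and BSA. Ten-point compound dilutions were incubated with 8 nM CBL-B for 60 min at 25° C., then read by luminescence after another 60 min at room temperature. IC50 came from a four-parameter fit, with Ki = relative IC50/2.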

The subject of test [1] is anti-CD3 activated human PBMCs. The test is described as follows: Effect of compounds on the level of IL-2 secretion by anti-CD3 activated human PBMCs (IL-2 ELISA). It counts as cell-based. The settings on record: compound concentration at which fold change in IL-2 = 5; hPBMCs, CD3 antibody 2 μg/mL, 48 h, compound from 3 μM. In a few lines: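 Human PBMCs were preincubated 1 h, then exposed to compound (10 points, 3-fold from 3 μM final) with anti-CD3 at 2 μg/mL for 48 h at 37° C. Supernatant IL-2 was measured by ELISA as fold change over DMSO.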
For orientation: ELISA stands for enzyme-linked immunosorbent assay.

Sequence of CBL-B protein (Q13191 whole entry): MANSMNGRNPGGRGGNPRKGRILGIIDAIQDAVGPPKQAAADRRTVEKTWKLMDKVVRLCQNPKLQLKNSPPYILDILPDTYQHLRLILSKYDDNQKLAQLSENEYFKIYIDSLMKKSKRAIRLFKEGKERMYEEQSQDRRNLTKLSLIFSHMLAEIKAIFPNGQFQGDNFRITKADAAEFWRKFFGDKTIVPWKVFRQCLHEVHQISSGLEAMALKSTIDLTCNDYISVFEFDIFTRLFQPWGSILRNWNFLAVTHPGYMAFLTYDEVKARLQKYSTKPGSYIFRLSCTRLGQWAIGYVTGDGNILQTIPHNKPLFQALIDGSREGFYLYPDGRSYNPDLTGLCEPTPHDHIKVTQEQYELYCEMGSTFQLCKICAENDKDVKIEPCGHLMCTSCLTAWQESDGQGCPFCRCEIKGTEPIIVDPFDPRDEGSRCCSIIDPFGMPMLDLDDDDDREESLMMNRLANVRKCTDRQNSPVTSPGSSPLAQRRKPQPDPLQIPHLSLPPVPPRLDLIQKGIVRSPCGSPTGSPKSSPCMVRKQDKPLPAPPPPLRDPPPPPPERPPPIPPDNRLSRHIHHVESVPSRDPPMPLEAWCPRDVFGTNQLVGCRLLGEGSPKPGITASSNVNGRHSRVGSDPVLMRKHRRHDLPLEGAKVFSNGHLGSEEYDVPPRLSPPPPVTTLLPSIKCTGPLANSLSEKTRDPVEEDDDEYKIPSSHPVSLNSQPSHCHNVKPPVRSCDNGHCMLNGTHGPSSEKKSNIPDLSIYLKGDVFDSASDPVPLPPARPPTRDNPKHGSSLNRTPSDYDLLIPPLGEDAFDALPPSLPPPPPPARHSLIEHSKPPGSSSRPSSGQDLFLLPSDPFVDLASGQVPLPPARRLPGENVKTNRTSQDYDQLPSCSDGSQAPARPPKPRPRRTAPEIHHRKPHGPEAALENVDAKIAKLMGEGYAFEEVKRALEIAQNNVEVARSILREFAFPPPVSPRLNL

As usually defined, the Ki is the dissociation constant of the complex between target and ligand, obtained from inhibition or displacement. On to `C[C@H]1CCCN(Cc2cc3c(C4CC4)cn(-c4cccc(C5(Cc6nncn6C)CC(F)(F)C5)c4)c(=O)c3[nH]2)C1` [Compound T077, 4-cyclopropyl-6-[3-[3,3-difluoro-1-[(4-methyl-1,2,4-triazol-3-yl)methyl]cyclobutyl]phenyl]-2-[[(3S)-3-methyl-1-piperidyl]methyl]-1H-pyrrolo[2,3-c]pyridin-7-one], for which the Ki on CBL-B protein is less than 50 nM. Moreover, the “IL-2 CFC=5/nM” value in test [1] is listed as less than 500 nM.
Taken in the same sequence, the figures for `Cn1cnnc1C1(c2cccc(-n3cc(C(F)(F)F)c4cc(CN5CCC[C@@H](CC#N)C5)[nH]c4c3=O)c2)CCC1` [Compound T080, (S)-2-(1-((6-(3-(1-(4-methyl-4H-1,2,4-triazol-3-yl)cyclobutyl)phenyl)-7-oxo-4-(trifluoromethyl)-6,7-dihydro-1H-pyrrolo[2,3-c]pyridin-2-yl)methyl)piperidin-3-yl)acetonitrile] were less than 50 nM and less than 500 nM.
Take `C[C@H]1CCCN(Cc2cc3c(C(F)(F)F)cn(-c4cccc(C5(c6nncn6C)CC6(CC6)C5)c4)c(=O)c3[nH]2)C1` [Compound T084, 2-[[(3S)-3-methyl-1-piperidyl]methyl]-6-[3-[5-(4-methyl-1,2,4-triazol-3-yl)spiro[2.3]hexan-5-yl]phenyl]-4-(trifluoromethyl)-1H-pyrrolo[2,3-c]pyridin-7-one]: at CBL-B protein, the Ki was less than 50 nM. In addition, the “IL-2 CFC=5/nM” value in test [1] is less than 500 nM.
For `CC=C1CC(c2cccc(-n3cc(C(F)(F)F)c4cc(CN5CCC[C@H](C)C5)[nH]c4c3=O)c2)(c2nncn2C)C1` (stereo partly drawn) [Compound T085, 6-[3-[3-ethylidene-1-(4-methyl-1,2,4-triazol-3-yl)cyclobutyl]phenyl]-2-[[(3S)-3-methyl-1-piperidyl]methyl]-4-(trifluoromethyl)-1H-pyrrolo[2,3-c]pyridin-7-one], in that order: less than 50 nM and less than 500 nM.
For `Cn1cnnc1C1(c2cccc(-n3cc(C(F)(F)F)c4cc(CN5C[C@H]6CCCC[C@H]6C5)[nH]c4c3=O)c2)CCC1` [Compound T086, 2-[[(3aS,7aR)-1,3,3a,4,5,6,7,7a-octahydroisoindol-2-yl]methyl]-6-[3-[1-(4-methyl-1,2,4-triazol-3-yl)cyclobutyl]phenyl]-4-(trifluoromethyl)-1H-pyrrolo[2,3-c]pyridin-7-one], in that order: less than 50 nM and less than 500 nM.
For `Cn1cnnc1[C@]1(c2cccc(-n3cc(C(F)(F)F)c4cc(CN5C[C@@H]6CC[C@@H](C6)C5)[nH]c4c3=O)c2)C[C@H](C)C1` [Compound T087, 2-((3-azabicyclo[3.2.1]octan-3-yl)methyl)-6-(3-((1s,3s)-3-methyl-1-(4-methyl-4H-1,2,4-triazol-3-yl)cyclobutyl)phenyl)-4-(trifluoromethyl)-1,6-dihydro-7H-pyrrolo[2,3-c]pyridin-7-one], in that order: less than 50 nM and less than 500 nM.
In the case of `Cn1cnnc1[C@]1(c2cccc(-n3cc(C(F)(F)F)c4cc(CN5CCCC6(CC6)C5)[nH]c4c3=O)c2)C[C@H](C)C1` [Compound T088, 2-((5-azaspiro[2.5]octan-5-yl)methyl)-6-(3-((1s,3s)-3-methyl-1-(4-methyl-4H-1,2,4-triazol-3-yl)cyclobutyl)phenyl)-4-(trifluoromethyl)-1,6-dihydro-7H-pyrrolo[2,3-c]pyridin-7-one], the Ki at CBL-B protein was less than 50 nM. Besides, the “IL-2 CFC=5/nM” value in test [1] is recorded as less than 500 nM.
The compound `Cn1cnnc1C1(c2cccc(-n3cc(C(F)(F)F)c4cc(CNCCCC(F)(F)F)[nH]c4c3=O)c2)CCC1` [Compound T091, 6-[3-[1-(4-methyl-1,2,4-triazol-3-yl)cyclobutyl]phenyl]-2-[(4,4,4-trifluorobutylamino)methyl]-4-(trifluoromethyl)-1H-pyrrolo[2,3-c]pyridin-7-one] gave a Ki at CBL-B protein of less than 50 nM. The “IL-2 CFC=5/nM” value in test [1] is less than 500 nM.
For `CC[C@H]1C[C@@](c2cccc(-n3cc(C(F)(F)F)c4cc(CN5CCC[C@H](C)C5)[nH]c4c3=O)c2)(c2nncn2C)C1` [Compound T092, 6-(3-((1r,3R)-3-ethyl-1-(4-methyl-4H-1,2,4-triazol-3-yl)cyclobutyl)phenyl)-2-(((S)-3-methylpiperidin-1-yl)methyl)-4-(trifluoromethyl)-1,6-dihydro-7H-pyrrolo[2,3-c]pyridin-7-one], in that order: less than 50 nM and less than 500 nM.
Taken in the same sequence, the figures for `CC[C@H]1C[C@](c2cccc(-n3cc(C(F)(F)F)c4cc(CN5CCC[C@H](C)C5)[nH]c4c3=O)c2)(c2nncn2C)C1` [Compound T093, 6-(3-((1s,3S)-3-ethyl-1-(4-methyl-4H-1,2,4-triazol-3-yl)cyclobutyl)phenyl)-2-(((S)-3-methylpiperidin-1-yl)methyl)-4-(trifluoromethyl)-1,6-dihydro-7H-pyrrolo[2,3-c]pyridin-7-one] were less than 50 nM and less than 500 nM.
Taken in the same sequence, the figures for `Cn1cnnc1C1(c2cccc(-n3cc(C(F)(F)F)c4cc(CNCCOC(F)(F)F)[nH]c4c3=O)c2)CCC1` [Compound T096, 6-[3-[1-(4-methyl-1,2,4-triazol-3-yl)cyclobutyl]phenyl]-2-[[2-(trifluoromethoxy)ethylamino]methyl]-4-(trifluoromethyl)-1H-pyrrolo[2,3-c]pyridin-7-one] were less than 50 nM and less than 500 nM.
At CBL-B protein, `Cn1cnnc1C1(c2cccc(-n3cc(C(F)(F)F)c4cc(CNCCOC5CCCC5)[nH]c4c3=O)c2)CCC1` [Compound T097, 2-[[2-(cyclopentoxy)ethylamino]methyl]-6-[3-[1-(4-methyl-1,2,4-triazol-3-yl)cyclobutyl]phenyl]-4-(trifluoromethyl)-1H-pyrrolo[2,3-c]pyridin-7-one] yielded a Ki of less than 50 nM. Moreover, in test [1], the “IL-2 CFC=5/nM” value is given as less than 500 nM.
Taken in the same sequence, the figures for `CCNCc1cc2c(C(F)(F)F)cn(-c3cccc(C4(c5nncn5C)CCC4)c3)c(=O)c2[nH]1` [Compound T102, 2-((ethylamino)methyl)-6-(3-(1-(4-methyl-4H-1,2,4-triazol-3-yl)cyclobutyl)phenyl)-4-(trifluoromethyl)-1,6-dihydro-7H-pyrrolo[2,3-c]pyridin-7-one] were less than 50 nM and less than 500 nM.
With `C[C@H]1CCCN(Cc2cc3c(C(F)(F)F)cn(-c4cc(F)cc([C@]5(c6nncn6C)C[C@H](C)C5)c4)c(=O)c3[nH]2)C1` [Compound T103, 6-(3-fluoro-5-((1r,3S)-3-methyl-1-(4-methyl-4H-1,2,4-triazol-3-yl)cyclobutyl)phenyl)-2-(((S)-3-methylpiperidin-1-yl)methyl)-4-(trifluoromethyl)-1,6-dihydro-7H-pyrrolo[2,3-c]pyridin-7-one], at CBL-B protein, the Ki is less than 50 nM. Besides, the “IL-2 CFC=5/nM” value in test [1] is given as less than 500 nM.
As to `CC(C)NCc1cc2c(C(F)(F)F)cn(-c3cccc(C4(c5nncn5C)CCC4)c3)c(=O)c2[nH]1` [Compound T104, 2-((isopropylamino)methyl)-6-(3-(1-(4-methyl-4H-1,2,4-triazol-3-yl)cyclobutyl)phenyl)-4-(trifluoromethyl)-1,6-di hydro-7H-pyrrolo[2,3-c]pyridin-7-one], the inhibitory constant (Ki) at CBL-B protein is less than 50 nM. The “IL-2 CFC=5/nM” value in test [1] is on record as less than 500 nM.
For the compound `C[C@H]1CCCN(Cc2cc3c(C(F)(F)F)cn(-c4cccc(C5(c6nncn6C)CC(F)(F)C5)c4)c(=O)c3[nH]2)C1` [Compound T109, 6-[3-[3,3-difluoro-1-(4-methyl-1,2,4-triazol-3-yl)cyclobutyl]phenyl]-2-[[(3S)-3-methyl-1-piperidyl]methyl]-4-(trifluoromethyl)-1H-pyrrolo[2,3-c]pyridin-7-one], the Ki on CBL-B protein was less than 50 nM. In addition, in test [1], the “IL-2 CFC=5/nM” value is less than 500 nM.
For `C[C@@H]1CN(Cc2cc3c(C(F)(F)F)cn(-c4cccc(C5(c6nncn6C)CCC5)c4)c(=O)c3[nH]2)CCC1(F)F` [Compound T111, (R)-2-((4,4-difluoro-3-methylpiperidin-1-yl)methyl)-6-(3-(1-(4-methyl-4H-1,2,4-triazol-3-yl)cyclobutyl)phenyl)-4-(trifluoromethyl)-1,6-dihydro-7H-pyrrolo[2,3-c]pyridin-7-one], in that order: less than 50 nM and less than 500 nM.
At CBL-B protein, `C[C@H]1CCCN(Cc2cc3c(C(F)(F)F)cn(-c4cccc(C5([C@@H](F)c6nncn6C)CC(F)(F)C5)c4)c(=O)c3[nH]2)C1` [Compound T119, 6-(3-(3,3-difluoro-1-((R)-fluoro(4-methyl-4H-1,2,4-triazol-3-yl)methyl)cyclobutyl)phenyl)-2-(((S)-3-methylpiperidin-1-yl)methyl)-4-(trifluoromethyl)-1,6-dihydro-7H-pyrrolo[2,3-c]pyridin-7-one] gave a Ki of less than 50 nM. Further, the “IL-2 CFC=5/nM” value in test [1] is less than 500 nM.
For `C[C@H]1CCCN(Cc2cc3c(C(F)(F)F)cn(-c4cccc(C5([C@H](F)c6nncn6C)CC(F)(F)C5)c4)c(=O)c3[nH]2)C1` [Compound T120, 6-(3-(3,3-difluoro-1-((S)-fluoro(4-methyl-4H-1,2,4-triazol-3-yl)methyl)cyclobutyl)phenyl)-2-(((S)-3-methylpiperidin-1-yl)methyl)-4-(trifluoromethyl)-1,6-dihydro-7H-pyrrolo[2,3-c]pyridin-7-one], in that order: less than 50 nM and less than 500 nM.
For `C[C@H]1CCCN(Cc2cc3c(C(F)(F)F)cn(-c4cc(C#N)cc([C@]5(c6nncn6C)C[C@@H](C)C5)c4)c(=O)c3[nH]2)C1` [Compound T121, 3-((1s,3R)-3-methyl-1-(4-methyl-4H-1,2,4-triazol-3-yl)cyclobutyl)-5-(2-(((S)-3-methylpiperidin-1-yl)methyl)-7-oxo-4-(trifluoromethyl)-1,7-dihydro-6H-pyrrolo[2,3-c]pyridin-6-yl)benzonitrile], in that order: less than 50 nM and less than 500 nM.
